Experimental data as given in patent US20140364454A1, “METAL-CHELATING COMPOUNDS HAVING AT LEAST ONE POLYAMINO CHAIN” (UNIVERSITE DE RENNES I, priority 2011, published 2014).

What was measured:
Caco-2 cells [1] = assay: LDH release of Caco-2 cells; assay type: cell-based, human; settings: for influence of exogenous iron on the cytotoxic effect: Caco-2, after addition of exogenous iron; for % LDH/control 10 μM: Caco-2 J4, 10 μM; for % LDH/control 100 μM: Caco-2 J4, 100 μM
Procedure: The action of Quilamines on the cell viability was analyzed on enterocyte cells of the Caco-2 tumor cell line derived from human colon carcinoma and compared with the action of ICL670 in the presence or absence of exogenous iron, after activation (DFMO) or competitive inhibition by spermidine, of the PTS. The operating conditions used are identical to those used for CHO/CHO-MG and HepG2 cells.
As in the case of the other cell lines in proliferative phase presented here above, the dose-effect curves of the action of the Quilamines on the number of viable cells (number of nuclei) are biphase curves with a cytostatic constituent for concentration values of below 30 micromoles per liter and a cytotoxic constituent with release of LDH for concentration values above 30 micromoles per liter. Only this second cytotoxic constituent is observed when the cells of the Caco-2 cell line are treated after confluence (stopping of the proliferation).

HepG2 cells = assay: Anti-proliferative effect on HepG2 cells (nuclei count or SDH activity); assay type: cell-based, human; settings: HepG2, presence of exogenous iron
Caco-2 cells [2] = assay: LC/MSMS of intra-cell polyamines in Caco-2 cells; assay type: cell-based, human; settings: proliferating Caco-2, 10 micromoles per liter, 72 hours
Procedure: After treatment for 72 hours of the Caco-2 cells, in proliferative phase by Quilamine HQ1-44 and ICL670 in a concentration of 10 micromoles per liter, a biochemical analysis is carried out by tandem mass spectrometry coupled with liquid chromatography (LC/MSMS) of the intra-cell polyamines such as putrescine, spermidine and spermine, after dansylation.

CHO cells = assay: Cytotoxic effect on CHO cells, LDH release in supernatants; settings: hamster, 72 h
Procedure: The in vitro efficacy of different Quilamines was tested on a wild cell line (CHO) of hamster ovarian cells having PTS and a mutant cell line CHO-MG without PTS. The two cell types CHO and CHO-MG were treated, 24 hours after being seeded in 96-well microplates, by concentrations of different Quilamines ranging from 0.1 to 400 micromoles per liter. The cytostatic (anti-proliferative) effects and cytotoxic effects of Quilamine after 72 hours' treatment of the cells were assessed respectively by counting cell nuclei after DNA marking by the Hoechst 33342 fluorescent intercalant dye and by analysis of membrane damage detected by the dosing of the lactate dehydrogenase activity (LHD) in the supernatants.
A comparison was made of the cytostatic or anti-proliferative action and the cytotoxic action for 72 h of treatment by Quilamine HQ1-44 and 8-hydroxyquinoline and ICL670, on the CHO cell lines in the presence and without the presence of exogenous iron, in the form of Fe(III) citrate in a concentration of 20 micromoles per liter. The results obtained are shown in FIG. 4, FIG. 4A relating to the results on cell viability and FIG. 4B relating to the results on cell toxicity.

[3] = tested on: ODC, OAZ1, SAMDC and PAO genes; assay: RT-qPCR of polyamine metabolism genes in Caco-2 cells; assay type: cell-based, human; settings: proliferating Caco-2, 10 micromoles per liter, 72 hours
Procedure: After treatment for 72 hours of the Caco-2 cells, in proliferative phase by Quilamine HQ1-44 and ICL670 in a concentration of 10 micromoles per liter, an analysis is carried by RT-qPCR of the expression of the main genes for regulating the metabolism of polyamines, such as ornithine decarboxylase (ODC), antizyme (OAZ1), S-adenosyl methionine decarboxylase (SAMDC) and polyamine oxydase (PAO).

[4] = Continuous variation method, absorption of the Quilamine-Fe(III) complex at 580 nm; assay type: physicochemical; settings: physiological pH
Procedure: At physiological pH, the Quilamine forms a Quilamine-Fe(III) complex preferably having a ligand:metal stoichiometry of 2/1. The ligand:metal stoichiometry can for example be determined by the continuous variation method, using the characteristic transition in the absorption spectrum of the Quilamine-Fe(III) complex at 580 nm, for chelator and iron concentrations ranging from 0 to 500 micromoles per liter.
The interaction of Quilamine HQ1-44 with iron (Fe3+) was assessed by means of a characteristic transition at 580 nm, observed in the absorption spectrum of the complex of Quilamine HQ1-44 with Fe(III). The continuous variation method consist in measuring the quantity of complex formed between Quilamine and Fe(III) deduced from the value of absorption at 580 nm, in bringing about a variation of the ratio of the concentrations in Quilamine/Quilamine+Fe(III) for a total concentration of Quilamine+Fe(III) that is constant and equal to 100 micromoles per liter (Tris/HCl buffer 100 millimoles per liter, pH 7.4).

[5] = Potentiometry: stability constants and pFe3+ of the iron complex; assay type: physicochemical
Procedure: The complexation affinity of Quilamine with the metal ion in the organism reflects the chelating capacity or chelating power of Quilamine. This affinity can be assessed by measuring the value of pW corresponding to −log of the concentration in free metal ion W, i.e. non-complexated by the Quilamine for a ratio of respective concentrations of Quilamine (10 micromoles per liter) and metal ion (1 micromole per liter) equal to 10, at 25° C. and pH 7.4. The higher the value of pW, the greater the affinity of Quilamine with metal ion. The affinity of Quilamine with iron in its ferric form (Fe(III)) and its ferrous form (Fe(II)) is measured respectively by pFe^3+ and pFe^2+ at physiological pH (pH=7.4), at 25° C.
Potentiometry measurements were made in thermostated titration cells at 25±0.1° C., using a Metrohm 702 SM Titrino titrator connected to a Metrohm 6.0233.100. The ligand solution is prepared in a concentration of ˜1.5×10^−3 moles per liter, the solution of Fe^3+ is made from FeCl3 and titrated by complexation with a standard solution of EDTA (ethylenediaminetetracetic acid). The sample for the measurement contained approximately 0.03 millimoles per liter of ligand in a volume of 30 ml where the ionic strength is maintained at 0.1 mole per liter in using KNO3 as a support electrolyte. During the titrations, Fe^3+ is added to 0.45 or 0.9 equivalents of ligand. Each titration consists of 150-200 equilibrium points with pH varying from 2.0 to 11.5, and is repeated at least twice. The thermodynamic constants are computed with the software […] and the speciation diagram of the species is done by the Hyss program.

Compound	influence of exogenous iron on the cytotoxic effect (Caco-2 cells [1])	% LDH/control 10 μM (Caco-2 cells [1]) [%]	% LDH/control 100 μM (Caco-2 cells [1]) [%]	influence of exogenous iron on the cytostatic effect (HepG2 cells)	change of intra-cell concentration of putrescine (Put) (Caco-2 cells [2]) [%]	change of intra-cell concentration of spermidine (Spd) (Caco-2 cells [2]) [%]	chelator concentration giving cytotoxic effect with release of LDH (CHO cells)	expression of the genes of polyamine metabolism (ODC, OAZ1, SAMDC, PAO) [3]	ligand/iron stoichiometry of the complex with Fe(III) [4]	Constant of stability (log K), species FeL ([5]; 25.0° C., I = 0.1 M in KNO3)	Constant of stability (log K), species FeL2 ([5]; 25.0° C., I = 0.1 M in KNO3)	Constant of stability (log K), species FeL2H ([5]; 25.0° C., I = 0.1 M in KNO3)	Constant of stability (log K), species FeL2H2 ([5]; 25.0° C., I = 0.1 M in KNO3)	Constant of stability (log K), species FeL2H3 ([5]; 25.0° C., I = 0.1 M in KNO3)	Constant of stability (log K), species FeL(OH) ([5]; 25.0° C., I = 0.1 M in KNO3)	Constant of stability (log K), species FeLH ([5]; 25.0° C., I = 0.1 M in KNO3)	Constant of stability (log K), species FeLH2 ([5]; 25.0° C., I = 0.1 M in KNO3)	pFe3+ ([5]; pH 7.4)	effect on intra-cell spermine (Spm) (Caco-2 cells [2])
O=C(O)c1ccc(-n2nc(-c3ccccc3O)nc2-c2ccccc2O)cc1 [ICL670, reference compound]	inhibition	117	130	inhibition	−34	−15	over 10 micromoles per liter	no effect											
NCCCCNCCCCNCc1ccc2cccc(O)c2n1 [HQ1-44, 2-[4-(4-aminobutyl)aminobutyl]aminomethylquinolin-8-ol]	partially inhibited	118	287		−73	−55		no effect	2/1	25.92	7.8	10.2	8.0	8.2	7.37	6.65	2.88	27	absence of an effect
